In US4622301A, “2-Oxocarboxylic acid reductase and its preparation” (BASF Aktiengesellschaft, priority 1983, dated 1986):

Assays:
[1] = tested on: 2-oxocarboxylic acid reductase; assay: Relative rates of reduction of 2-oxocarboxylic acids, enzyme from P. mirabilis; format: biochemical, Proteus mirabilis; conditions: for Relative rates (of reduction): P. mirabilis enzyme, rate for phenylpyruvate taken as 1
[2] = tested on: 2-oxocarboxylic acid reductase; assay: Relative rates of reduction of 2-oxocarboxylic acids, enzyme from P. vulgaris; format: biochemical, Proteus vulgaris; conditions: rate for phenylpyruvate taken as 1
Procedure: In an electrochemical cell, 25 ml of a solution of 100 mM potassium phosphate buffer at pH 7.0, 4 mM methylviologen and 40 mM phenylpyruvate were reduced with 0.5 mg of 2-oxoacid reductase according to Example 3 at a voltage of -700 mV, against a standard calomel electrode. The current of 5.8 mA decreased sharply after 9 hours. According to HPLC analysis, the reaction solution contained 88% of the phenyllactic acid expected. The solution was acidified to pH 1.8 with dilute sulfuric acid and then extracted with ether. […] A pure commercial preparation of (2S)-sodium phenyllactate gave a value of -21.4°, measured under the same conditions. (R)-mandelic acid and (R)-2-hydroxy-4-methylpentanoate were prepared by a similar method.
3-Oxocarboxylic acids and hydroxyacetone are not reduced.

[3] = tested on: 2-oxocarboxylic acid reductase
[4] = tested on: 2-oxocarboxylic acid reductase; assay: Initial rates with increasing concentrations of oxidized methylviologen, P. mirabilis enzyme; format: biochemical, Proteus mirabilis; conditions: for Initial rate: P. mirabilis, 2-oxo-4-methylpentanoate, pH 7.0
Procedure: (§1) In the presence of increasing concentrations of MV^++ and 0.15 mM MV^+, the initial rates show the following behavior:
(§2) (0.3 ml of 0.1M trisacetate buffer of pH 7.0, 2 μmole of 2-oxo-4-methylpentanoate, the same amount of enzyme in each case, 0.2 mM of reduced methylviologen and the concentrations of oxidized methylviologen stated in the table were incubated in a 2 mm cell.)

[5] = tested on: 2-oxocarboxylic acid reductase; assay: Initial rates with increasing concentrations of oxidized methylviologen, P. vulgaris enzyme; format: biochemical, Proteus vulgaris; conditions: 2-oxo-4-methylpentanoate, pH 7.0
Procedure: as §1, §2

CC(C)(CO)C(=O)C(=O)O [2-Oxopantoate]
Relative rates (of reduction) [1]: 0.07 | Relative rates (of reduction) [2]: 0.04

O=C(O)CN(CCN(CC(=O)O)CC(=O)O)CC(=O)O [EDTA]
effect on the activity of the enzyme [3]: not affected

CC(=O)CO [Hydroxyacetone]
Reduction by the enzyme (in words) [1]: not reduced | Relative rates (of reduction) [1]: 0

C[n+]1ccc(-c2cc[n+](C)cc2)cc1 [MV^++, methylviologen]
effect on the activity of the enzyme (in words) [4]: can be increased | Initial rate ([4]; MV++ 0.01 mM): 18.1 U/ml | Initial rate ([4]; MV++ 0.08 mM): 41.9 U/ml | Initial rate ([4]; MV++ 0.16 mM): 46.0 U/ml | Initial rate ([4]; MV++ 0.75 mM): 62.0 U/ml | Initial rate ([5]; MV++ 0.01 mM): 13.3 U/ml | Initial rate ([5]; MV++ 0.08 mM): 24.4 U/ml | Initial rate ([5]; MV++ 0.16 mM): 31.3 U/ml | Initial rate ([5]; MV++ 0.75 mM): 41.5 U/ml
